The record followed here is patent US5719278A, “Tricyclic benzazepine vasopressin antagonists” (American Cyanamid Company, priority 1996, dated 1998).

Structures are written as SMILES.

Test [1] has as its target T1, Rat Kidney Medullary V2 Receptors (Rattus norvegicus, UniProt Q00788).
T1 construct: Medullary tissues from rat kidneys are dissected out; from tissue; host or cells: rat kidney medulla membranes
The test is described as follows: Binding Assay to Rat Kidney Medullary V2 Receptors. To be noted: for IC50: Rat Kidney Medullary V2 Receptors (no asterisk). As for the experimental part:
Binding Assay to Rat Kidney Medullary V2 Receptors
Medullary tissues from rat kidneys are dissected out, cut into small pieces and let soak in a […] sodium chloride solution containing 1.0 mM EDTA with many changes of the liquid phase, until the solution is clear of blood. The tissue is homogenized in a 0.25M sucrose solution containing 1.0 mM EDTA and 0.1 mM PMSF using a Potter-Elvehjem homogenizer with a teflon pestle. The homogenate is filtered through several layers (4 layers) of cheese cloth. The filtrate is rehomogenized using a dounce homogenizer, with a tight fitting pestle. The final homogenate is contrifuged at 1500×g for 15 min. The nuclear pellet is discarded and the supernatant fluid recentrifuged at 40,000×g for 30 min. The resulting pellet formed contains a dark inner part with the exterior, slightly pink. The pink outer part is suspended in a small amount of 50.0 mM Tris.HCl buffer, pH 7.4. The protein content is determined by the Lowry's method (Lowry et al, J. Biol. Chem., 1953). The membrane suspension is stored at -70° C., in 50.0 mM Tris.HCl, containing 0.2% inactivated BSA and 0.1 mM PMSF in aliquots of 1.0 ml containing 10.0 mg protein per ml of suspension until use in subsequent binding experiments.
For binding experiments, the following is added in μl volume to wells of a 96 well format of a microtiter plate: 100.0 μl of 100.0 mM Tris.HCl buffer containing 0.2% heat inactivated BSA, 10.0 mM MgCl2 and a mixture of protease inhibitors: leupeptin, 1.0 mg %; aprotinin, 1.0 mg %; 1,10-phenanthroline, 2.0 mg %; trypsin inhibitor, 10.0 mg % and 0.1 mM PMSF, 20.0 μl of [^3 H]Arginine^8, vasopressin (S.A. 75.0 Ci/mmole) at 0.8 nM and the reaction initiated by the addition of 80.0 μl of tissue membranes (200.0 μg tissue protein). The plates are left undisturbed on the bench top for 120 min. to reach equilibrium. Non-specific binding is assessed in the presence of 1.0 μM of unlabeled ligand, added in 20 μl volume. For test compounds, these are solubilized in 50% dimethylsulfoxide (DMSO) and added in 20.0 μl volume to a final incubation volume of 200 μl. Upon completion of binding, the content of each well is filtered off, using a Brandel® cell Harvester (Gaithersburg, Md.). The radioactivity trapped on the filter disk by the ligand-receptor complex is assessed by liquid scintillation counting in a Packard LS Counter, with an efficiency of 65% for tritium. The data are analyzed for IC50 values by the LUNDON-2 program for competition (LUNDON SOFTWARE, Ohio).

The target in test [2] is T2, oxytocin receptors (Rattus norvegicus, UniProt P70536).
T2 construct: The uteri are dissected out, cleaned of fat and connective tissues; from tissue; host or cells: uterus of DES-treated female Sprague-Dawley rats
T2 sequence (P70536 1-388): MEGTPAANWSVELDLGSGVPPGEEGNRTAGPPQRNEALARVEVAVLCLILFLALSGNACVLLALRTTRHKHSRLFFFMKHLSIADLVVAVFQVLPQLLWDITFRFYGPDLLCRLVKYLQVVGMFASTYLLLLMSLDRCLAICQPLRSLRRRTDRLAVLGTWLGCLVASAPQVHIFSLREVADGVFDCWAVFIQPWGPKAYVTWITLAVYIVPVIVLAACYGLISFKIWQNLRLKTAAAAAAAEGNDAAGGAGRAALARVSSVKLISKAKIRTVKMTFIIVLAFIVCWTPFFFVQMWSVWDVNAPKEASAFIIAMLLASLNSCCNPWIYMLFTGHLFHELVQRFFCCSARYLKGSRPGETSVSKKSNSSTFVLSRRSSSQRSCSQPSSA
The experiment in a line: Oxytocin Receptor Binding. On the set-up: species or system Sprague-Dawley rat. As for the experimental part: Oxytocin Receptor Binding
Female Sprague-Dawley rats weighing approximately 200-250 g are injected intramuscularly (i.m.) with 0.3 mg/kg of body weight of diethylstilbestrol (DES). The rats are sacrificed 18 hours later under pentobarbital anesthesia. The uteri are dissected out, cleaned of fat and connective tissues and rinsed in 50 ml of normal saline. The tissue pooled from six rats is homogenized in 50 ml of […] TriS.HCl, containing 0.5 mM dithiothreitol and 1.0 mM EDTA, adjusted to pH 7.4, using a polytron at setting 6 with three passes of 10 sec each. The homogenate is passed through two (2) layers of cheesecloth and the filtrate contrifuged at 1000×g for 10 min. The clear supernatant is removed and recentrifuged at 165,000×g for 30 min. The resulting pellet containing the oxytocin receptors is resuspended in 50.0 mM Tris.HCl containing 5.0 mM MgCl2 at pH 7.4, to give a protein concentration of 2.5 mg/ml of tissue suspension. This preparation is used in subsequent binding assays with [^3 H]Oxytocin.
Binding of 3,5-[^3 H]Oxytocin ([^3 H]OT) to its receptors is done in microtiter plates using [^3 H]OT, at various concentrations, in an assay buffer of 50.0 mM Tris.HCl, pH 7.4 and containing 5.0 mM MgCl2, and a mixture of protease inhibitors: BSA, 0.1 mg; aprotinin, 1.0 mg; 1,10-phenanthroline, 2.0 mg; […], 10.0 mg; and PMSF, 0.3 mg per 100 ml of buffer solution. Non-specific binding is determined in the presence of 1.0 uM unlabeled OT. The binding reaction is terminated after 60 min., at 22° C., by rapid filtration through glass fiber filters using a Brandel® cell harvester (Biomedical Research and Development Laboratories, Inc., Gaithersburg, Md.). Competition experiments are conducted at equilibrium using 1.0 nM [^3 H]OT and varying the concentration of the displacing agents. The concentrations of agent displacing 50% of [^3 H]OT at its sites (IC50) are calculated by a computer assisted LUNDON-2 program (LUNDON SOFTWARE INC., Ohio, U.S.A.).

Test [3] has as its system Vasopressin V2. The experiment in a line: Vasopressin V2 Antagonist Activity in Conscious Hydrated Rats. Type of test: in vivo, rat. To be noted: 10 mg/kg orally, N = 2, AVP 0.4 μg/kg intraperitoneally; for Osmolality (mOsm/kg): urine. The protocol: Vasopressin V2 Antagonist Activity in Conscious Hyrdated Rats
Conscious hydrated rats are treated with compounds under study from 0.1 to 100 mg/kg orally or vehicle. Two to four rats are used for each compound. One hour later, arginine vasopressin (AVP, antidiuretic hormone, ADH) dissolved in peanut oil is administered at 0.4 μg/kg intraperitoneally. Two rats in each test would not receive arginine vasopressin but only the vehicle (peanut oil) to serve as water-loading control. Twenty minutes later each rat is given 30 mL/kg of deionized water orally by gavage and is placed individually in a metabolic cage equipped with a funnel and a graduated glass cylinder to collect urine for four hours. Urine volume is measured and osmolality analyzed by use of a Fiske One-Ten osmometer (Fiske Assoc., Norwood, Mass. U.S.A.). Urinary sodium, potassium, and chloride are analyzed by use of ion-specific electrodes in a Beckman E3(Electrolyte 3) Analyzer.
In the following results, […] and decreased osmolality relative to AVP-control indicates activity.

The target of test [4] is T3, V1 Receptor Subtype in Human Platelet (Homo sapiens, UniProt P37288).
T3 construct: from tissue; host or cells: human platelets (platelet rich plasma from Hudson Valley Blood Services)
T3 sequence (P37288 whole entry): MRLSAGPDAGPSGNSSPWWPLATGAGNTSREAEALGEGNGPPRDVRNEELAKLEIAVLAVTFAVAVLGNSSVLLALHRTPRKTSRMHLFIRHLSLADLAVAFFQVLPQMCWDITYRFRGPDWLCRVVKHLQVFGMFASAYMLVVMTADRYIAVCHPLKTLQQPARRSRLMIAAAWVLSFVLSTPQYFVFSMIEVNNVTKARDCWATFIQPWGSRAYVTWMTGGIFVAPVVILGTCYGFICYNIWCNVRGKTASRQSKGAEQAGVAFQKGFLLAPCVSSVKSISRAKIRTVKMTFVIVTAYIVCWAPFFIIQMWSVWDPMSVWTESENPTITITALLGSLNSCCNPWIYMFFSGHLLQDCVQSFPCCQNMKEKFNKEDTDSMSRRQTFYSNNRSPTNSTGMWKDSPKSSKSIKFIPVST
The experiment in a line: Binding to Vasopressin V1 Receptor Subtype in Human Platelet Membranes. The protocol: Radioligand Binding Experiments with Human Platelet Membranes
Platelet Source: Hudson Valley Blood Services, Westchester Medical Center, Valhalla, N.Y.
Frozen platelet rich plasma (PRP), received from the Hudson Valley Blood Services are thawed to room temperature. The tubes containing the PRP are centrifuged at 16,000×g for 10 min. at 4° C. and the supernatant fluid discarded. The platelets resuspended in an equal volume of 50.0 mM Tris.HCl, pH 7.5 containing 120 mM NaCl and 20.0 mM EDTA. The suspension is recentrifuged at 16,000×g for 10 min. This washing step is repeated one more time. The wash is discarded and the lysed pellets homogenized in low ionic strength buffer of Tris.HCl, 5.0 mM, pH 7.5 containing 5.0 mM EDTA. The homogenate is centrifuged at 39,000×g for 10 min. The resulting pellet is resuspended in Tris.HCl buffer, 70.0 mM, pH 7.5 and recentrifuged at 39,000×g for 10 min. The final pellet is resuspended in 50.0 mM Tris.HCl buffer pH 7.4 containing 120 mM NaCl and 5.0 mM HCl to give 1.0-2.0 mg protein per ml of suspension.
Binding to Vasopressin V1 Receptor Subtype in Human Platelet Membranes:
In wells of a 96 well format microtiter plate, add 100 μl of 50.0 mM Tris.HCl buffer containing 0.2% BSA and a mixture of protease inhibitors (aprotinin, leupeptin etc.). Then add 20 μl of [^3 H]Ligand: (Manning or Arg^8 Vasopressin), to give final concentrations ranging from 0.01 to 10.0 nM. Initiate the binding by adding 80.0 μl of platelet suspension (approx. 100 μg protein). Mix all reagents by pipetting the mixture up and down a few times. Non-specific binding is measured in the presence of 1.0 μM of unlabeled ligand (Manning or Arg^8 Vasopressin). Let the mixture stand undisturbed at room temperature for ninety (90) min. Upon this time, rapidly filter off the incubate under vacuum suction over GF/B filters, using a Brandel® Harvester. Determine the radioactivity caught on the filter disks by the addition of liquid scintillant and counting in a liquid scintillator

T1 sequence (Q00788 whole entry): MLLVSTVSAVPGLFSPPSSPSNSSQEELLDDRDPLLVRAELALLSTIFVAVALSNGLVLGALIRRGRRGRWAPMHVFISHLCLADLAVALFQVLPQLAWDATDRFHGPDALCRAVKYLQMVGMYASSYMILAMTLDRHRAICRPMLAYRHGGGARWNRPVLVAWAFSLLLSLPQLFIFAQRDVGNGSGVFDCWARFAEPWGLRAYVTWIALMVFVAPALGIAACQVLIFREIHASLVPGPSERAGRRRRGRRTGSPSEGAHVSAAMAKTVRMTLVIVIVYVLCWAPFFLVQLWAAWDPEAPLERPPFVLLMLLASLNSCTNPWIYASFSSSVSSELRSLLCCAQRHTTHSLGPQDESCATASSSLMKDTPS

By IC50 is commonly meant the point on the concentration scale where inhibition reaches its midpoint. Read a low IC50 as higher potency. For `Cc1ccc(F)cc1C(=O)Nc1ccc(C(=O)N2CCc3c[nH]nc3-c3sccc32)c(Cl)c1` [Example 3, N-[4-[(4,5-Dihydropyrazolo[3,4]thieno[3,2-b]azepin-6-(1H)-yl)carbonyl]-3-chlorophenyl]-5-fluoro-2-methylbenzamide], the half-maximal inhibitory concentration (IC50) in test [1] was found to be 0.0061 µM. Same read-out and setting: with `O=C(Nc1ccc(C(=O)N2CCc3cn[nH]c3-c3sccc32)c(Cl)c1)c1cc(Cl)ccc1F` [Example 4, N-[4-[(4,5-Dihydropyrazolo[3,4-d]thieno[3,2-b]azepin-6(1H)-yl)carbonyl]-3-chlorophenyl]-5-chloro-2-fluorobenzamide] the figure was 0.036 µM. In general, inhibition refers to the change of the read-out against control, counted positive when it falls. A high value points to a strong effect. In test [2], `Cn1cc2c(n1)-c1sccc1N(C(=O)c1ccc(NC(=O)c3ccc(Cl)cc3Cl)cc1)CC2` [Example 5, N-[4-[[4,5-Dihydro-2-methylpyrazolo[3,4-d]thieno[3,2-b]-azepin-6-(2H)-yl]carbonyl]phenyl]2,4-dichlorobenzamide] gave an inhibition at 10 µM of 47%.

In test [2], `Cc1ccccc1C(=O)Nc1ccc(C(=O)N2CCc3c[nH]nc3-c3sccc32)cc1` [Example 7, N-[4-[[4,5-Dihydropyrazolo[3,4-d]thieno[3,2-b]azepin-6(2H)-yl]carbonyl]phenyl]-2-methylbenzamide] had an inhibition at 10 µM of 65%. Further, in test [3], the “Urine Vol. (ml/4 hrs.)” value was 20.8 ml/4 hrs and the “Osmolality (mOsm/kg)” value is reported as 322 mOsm/kg.

`Cc1ccc(F)cc1C(=O)Nc1ccc(C(=O)N2CCc3cn[nH]c3-c3cccnc32)cc1` [Example 16, N-[4-[(4,5-Dihydropyrazolo[3,4-d]pyrido[2,3-b]azepin-6(1H)-yl)carbonyl]phenyl]-5-fluoro-2-methylbenzamide]: the IC50 in test [4] (*Binding to V1 Receptor Subtype in Human Platelet) was 3.3 µM; in test [1], 0.55 µM.

With `Cc1ccccc1C(=O)Nc1ccc(C(=O)N2CCc3cn(C)nc3-c3sccc32)cc1` [Example 361], in test [2] (1.0 nM [^3 H]OT, 60 min., 22° C.), the concentration for half-maximal inhibition (IC50) turned out to be 6400 nM. In test [2], the inhibition at 10 µM stood at 57%. For the molecule `O=C(c1ccc(-c2ccccc2)cc1)N1CCc2cn[nH]c2-c2ncccc21` [Example 364, 6-([1,1'-Biphenyl]-4-ylcarbonyl)-1,4,5,6-tetrahydropyrazolo[3,4-d]pyrido[3,2-b]azepine], the inhibition at 10 µM in test [4] (1.5 h, *Human Platelet V1, at 10 μM) is 77%. Moreover, the inhibition at 1 µM in test [1] (Rat Kidney Medullary V2, at 1 μM) came to 17%. As to `O=C(Nc1ccc(C(=O)N2CCc3cn[nH]c3-c3ncccc32)c(Cl)c1)c1ccccc1-c1ccccc1` [Example 366, N-[4-[(4,5-Dihydropyrazolo[3,4-d]pyrido[3,2-b]azepin-6(1H)-yl)carbonyl]-3-chlorophenyl][1,1'-biphenyl]-2-carboxamide], in test [3], the “Urine Vol. (ml/4 hrs.)” value was 17.8 ml/4 hrs and the “Osmolality (mOsm/kg)” value was 431 mOsm/kg.

Turning to `O=C(Nc1ccc(C(=O)N2CCc3c[nH]nc3-c3ncccc32)cn1)c1ccccc1-c1ccccc1` [Example 368, N-[5-[(4,5-Dihydro[3,4-d]pyrido[3,2-b]azepin-6(1H)-yl)carbonyl]-2-pyridinyl][1,1'-biphenyl]-2-carboxamide], in test [3], the “Urine Vol. (ml/4 hrs.)” value stood at 20.3 ml/4 hrs and the “Osmolality (mOsm/kg)” value came out at 371 mOsm/kg.
